Reference: ChEMBL document CHEMBL3507680, “University of Dundee, Gates Library screen for HepG2 cell viability”

Test: Human HepG2 cell viability assay in 384 well format
Format: toxicity, cell-based
Parameters: dose 125 nL, time 70.5 hour; cytotoxicity at 70.5 h: concentration not given beside the values
Conditions: HepG2 cells, read-out: Inhibition

In the case of `CC1CCCN1Cc1cccc(C(=O)Nc2ccc3[nH]c(=O)oc3c2)c1` (centres undefined), the cytotoxicity at 70.5 h is reported as 30.6%.

`c1cncc(C(Cn2cnnc2)N2CCOCC2)c1` (centres undefined) showed a cytotoxicity at 70.5 h of 2.14%.

Work on `Cc1ccc([C@@H]2CN(S(=O)(=O)N3CCC(C)CC3)C[C@H]2N(C)C)cc1` yielded a cytotoxicity at 70.5 h of -12.1%.

Compound `COc1nc2c(cc1C(=O)NC(C)Cc1cc(C)n[nH]1)CCC2` (centres undefined) has a cytotoxicity at 70.5 h of -12%.

With `CN(CCN1CCCCCC1)c1nccc(N2CCC(O)C2)n1` (centres undefined) the cytotoxicity at 70.5 h was -6.64%.

`COCc1noc(CN2CC(=O)N(C)c3ccccc3C2=O)n1` gave a cytotoxicity at 70.5 h of 0.208%.

Work on `Cc1ccccc1OCC1CCCN(C(=O)CNC(=O)N(C)C)C1` (centres undefined) yielded a cytotoxicity at 70.5 h of 16.8%.

With `N#Cc1c2n(c3c(=O)[nH]cnc13)CCCCC2` the cytotoxicity at 70.5 h was 2.85%.

With `CCc1nc(N)nc(NCCC(=O)NC2CCCCC2)c1C` the cytotoxicity at 70.5 h was -3.68%.

`Cc1cc(C(=O)N2CCC3(CC2)CN(CCN(C)C)C(=O)O3)nc(C)n1` gave a cytotoxicity at 70.5 h of -6.56%.

Compound `COCc1ccc(C(=O)N2CC[C@@](O)(COC)C(C)(C)C2)o1` has a cytotoxicity at 70.5 h of -6.95%.

`CNCc1n[nH]c(=O)n1-c1cccc(Cl)c1Cl` showed a cytotoxicity at 70.5 h of -8.26%.

`O=c1n(CCn2cccc2)nc(C2CCNCC2)n1Cc1ccccc1` gave a cytotoxicity at 70.5 h of -3.92%.

With `Cc1ccccc1C(CNC(=O)CSc1nnc(N)s1)N(C)C` (centres undefined) the cytotoxicity at 70.5 h was -6.4%.

In the case of `CCC(C(=O)NC1(CN2CCOCC2)CCCC1)n1cccn1` (centres undefined), the cytotoxicity at 70.5 h is reported as -2.56%.

`CCc1ncc(C(=O)N(C)C2Cc3ccccc3C2)cn1` gave a cytotoxicity at 70.5 h of 2.28%.

`Cc1cccc(C(C(=O)NC(C)(C)CN2CCCC2)N(C)C)c1` (centres undefined) showed a cytotoxicity at 70.5 h of -8.64%.

For `CC(=O)NCc1cc2n(n1)CCN(Cc1cccc(CCN)c1)C2`, the cytotoxicity at 70.5 h was -2.57%.

With `O=C(NCCn1ccnc1-c1cc2n(n1)CCNC2)c1ccc(F)cc1` the cytotoxicity at 70.5 h was 2.16%.

For `O=C(Cn1nc2ccccc2n1)N1CCCn2cncc2C1`, the cytotoxicity at 70.5 h was -8.74%.

In the case of `CC1(C)CN(S(=O)(=O)N2CCCC2)CC1c1ccccc1` (centres undefined), the cytotoxicity at 70.5 h is reported as -6.08%.

With `CCc1nc(NCCc2nc(C)c(C)s2)c2cnn(C)c2n1` the cytotoxicity at 70.5 h was -7.53%.

Work on `CCc1cccc(NC(=O)CCC(=O)N(C)Cc2nc(C)c[nH]2)c1` yielded a cytotoxicity at 70.5 h of 2.2%.

`Cn1c(CN2CCCCC2)nnc1C1CCCN(c2ccncc2F)C1` (centres undefined) showed a cytotoxicity at 70.5 h of -5.33%.

Compound `CCN1CCCC1Cn1ccc2c(OC)c(OC)ccc2c1=O` (centres undefined) has a cytotoxicity at 70.5 h of -6.22%.

Compound `O=S1(=O)C[C@@H]2[C@H](C1)N(Cc1cc(F)cc(F)c1)CCN2CCO` has a cytotoxicity at 70.5 h of -1.64%.

For `CCC(C)N(Cc1cccnc1)C(=O)c1ccc(NS(=O)(=O)CC)cc1` (centres undefined), the cytotoxicity at 70.5 h was -1.92%.

`Cc1cccnc1CN(C)C(C(=O)O)c1ccc(C(C)(C)C#N)cc1` (centres undefined) showed a cytotoxicity at 70.5 h of -0.799%.

For `Cc1cc(NC(=O)c2ccc(CN3CC[C@H](O)C3)cc2)ccc1F`, the cytotoxicity at 70.5 h was -13.5%.

`CC(C)Cc1cc(C(=O)NCC2CCN(c3ccccc3F)C2)on1` (centres undefined) gave a cytotoxicity at 70.5 h of -13.6%.

`CCCC(=O)Nc1cc(C(=O)NC(C)Cc2ccncc2)ccc1C` (centres undefined) gave a cytotoxicity at 70.5 h of -5.95%.

Work on `CC(C)CN1CC(c2nc(-c3ccsc3)c[nH]2)CC1=O` (centres undefined) yielded a cytotoxicity at 70.5 h of -2.45%.

`Cc1ccccc1C(C(=O)N1CCN(C(=O)c2ccc[nH]2)CC1)N(C)C` (centres undefined) showed a cytotoxicity at 70.5 h of -15.2%.

For `Cc1cc(C)n(C2CCN(c3ncnc4c3CCC4)C2)n1` (centres undefined), the cytotoxicity at 70.5 h was 12.6%.

For `CCc1nccn1CCC(=O)N1C[C@H]2CC[C@@H]1CN(C(=O)N(C)C)C2`, the cytotoxicity at 70.5 h was -3.14%.

Compound `Cc1ccc(-c2nc(CNC(C)CCO)[nH]c2-c2ccccn2)cc1` (centres undefined) has a cytotoxicity at 70.5 h of 1.74%.

`Cn1nnnc1SCCNC(=O)C1CCN(C(=O)C2CCCC2)CC1` gave a cytotoxicity at 70.5 h of -5.48%.

Work on `O=C(Cc1c[nH]c(=O)[nH]c1=O)N1CCCCC1CCc1ccccc1` (centres undefined) yielded a cytotoxicity at 70.5 h of 3.58%.

With `COc1ccc(F)cc1C(=O)N1C[C@H]2CC[C@@H]1CN(c1ncccn1)C2` the cytotoxicity at 70.5 h was -9.41%.

For `CCc1nc(C)c(C(=O)N(C)Cc2cnn(-c3cccc(OC)c3)c2)s1`, the cytotoxicity at 70.5 h was -3.66%.

With `CNC(=O)C(C)CNC(=O)c1coc(COc2cccc(F)c2F)n1` (centres undefined) the cytotoxicity at 70.5 h was -14.8%.

With `CCCc1nc(N2CC[C@@H](c3ccc4c(c3)OCO4)[C@H](O)C2)no1` the cytotoxicity at 70.5 h was -9.08%.

For `Cc1ncoc1C(=O)N1CCOC(CCCC(C)C)C1` (centres undefined), the cytotoxicity at 70.5 h was -8.44%.

`COC(=O)[C@H]1C[C@@H](O)CCN1S(=O)(=O)c1ccc(F)cc1F` gave a cytotoxicity at 70.5 h of 21.8%.
